Assay results published in US20250213531A1, “5-MEO-DTM FOR THE TREATMENT OF BIPOLAR DISORDER” (GH RESEARCH IRELAND LIMITED, priority 2022, published 2025).

Test system: patients with postpartum depression (PPD)
Assay: Clinical trial of inhaled 5-MeO-DMT (IDR) in postpartum depression, one patient (6 mg then 12 mg)
Details: n=1
Experimental: The single-arm, open-label clinical trial will involve 15 adult female patients with clinically diagnosed postpartum depression (PPD).
The second dose (12 mg) will only be administered if: • a. […] The 6 mg dose was safe and well-tolerated according to the investigator, • c. Any psychoactive effects (PsE) of the prior dose have subsided, and • d. Pre-dose vital parameters and forced expiratory volume in one second (FEV1) are in normal range, or if outside of the normal range, are not clinically significant according to the investigator. • 3. Similarly, a third dose (18 mg) will only be administered if: • a. […] The 12 mg dose was safe and well-tolerated according to the investigator, and • c. Any PsE of the prior dose have subsided, and • d. Pre-dose vital parameters and forced expiratory volume in one second (FEV1) are in normal range, or if outside of the normal range, are not clinically significant according to the investigator.
The patients will be assessed for a peak psychedelic experience (based on a patient-scored visual analogue scale, the PE scale), sedation, and other endpoints after dosing. Follow-up visits are planned for Day 1, and Day 7 after the dosing day.

In the case of `COc1ccc2[nH]cc(CCN(C)C)c2c1` [5-MeO-DMT], the “standard criteria for MADRS response (at least 50% improvement) and MADRS remission (total score <=10)” value is reported as “fulfilled”, the “tolerability of inhalation procedure” value is reported as “well tolerated with no inhalation-related adverse events” and the “adverse events (cramping left abdominal pain, headache)” value (Day 0) is reported as “mild, short-lasting and resolved spontaneously”. The “ECG, safety laboratory analyses, CADSS” value (ECG 3 hours, laboratory 7 days, CADSS 3 hours, 1 day, 7 days) was “unremarkable”.
